# Test results reported in patent publication US20250152633A1, “CELLS HAVING IMPROVED PROLIFERATIVE CAPACITY AND REDUCED CELLULAR SENESCENCE” (BOARD OF REGENTS, THE UNIVERSITY OF TEXAS SYSTEM, priority 2023, published 2025).
# Entries after “also recorded” stand apart in the source; their conditions may differ. Where two headings read alike, the source gives them in different places. Bridge positions count the residues as written; N and C are the ends. Ends that are not written are not given here.
# Legend:
# MSCs from an aged donor = assay: p-γ-H2AX DNA double-strand break repair foci immunostaining; type: cell-based, human; conditions: for p-γ-H2AX foci, treatment of static control cells vs. static treatment alone: 4 hours static, 3 μM GsMTx4, 2 μM Dooku 1
# Method: Immunocytochemical staining on silicone membranes. Following the treatments, the cells were fixed in 4% paraformaldehyde in PBS for 10 minutes followed by washing and permeabilization with 0.1% Triton X-100 PBS for 5 minutes. Next, samples were blocked with PBS containing 5% FBS and 1% BSA for 40 minutes. After washing, cells were incubated with primary antibodies (see Table 2 for specific antibodies and concentrations) in PBS with 1% BSA overnight at 4° C. The samples were then washed twice in PBS with 1% BSA and incubated with secondary antibodies in PBS with 1% BSA for 2 hours in a light protected environment. Cells treated with extensive washes with PBS with 1% BSA prior to mounting in anti-fade media (Vector Laboratories, Inc.). The samples were then imaged using confocal microscopy with a LSM 710 laser scanning confocal microscope (Carl Zeiss, Inc.).
# p-γ-H2AX Foci Analysis. Following confocal imaging, images were analyzed with FIJI software to count p-γ-H2AX histone foci. Three-dimensional image stacks were maximum intensity projected to generate two-dimensional images with 12-bit range of 0-4095. Background signal outside of nuclei boundaries was measured and subtracted from the image. Individual cell nuclei regions of interest were selected, and an intensity threshold of 300 bits was applied. The Analyze Particle plugin was applied to count the p-γ-H2AX foci in each nucleus, with a minimum particle size of 0.5 μm applied. At least 100 individual cell nuclei were analyzed for each treatment group to calculate the mean foci count per cell, mean foci count per nuclear area, and standard errors.
# (§1) Conditioning of hMSCs using biochemical factors. For mechanistic experiments involving chemical factors and biological inhibitors, cells were incubated with the chemical treatments as shown in Table 3. The cells were treated with mechanical loading for 4 hours/day under brachial waveform at 0.1 Hz and 7.5% maximum strain or cultured under static conditions. The culture media containing the treatments were replaced on day 3 and day 5 for all 7-day treatments.
# MSCs from aged donors = assay: BrdU proliferation assay (DNA synthesis) after mechanical and chemical treatment; type: cell-based, human; conditions: for DNA synthesis (BrdU assay): co-treatment with brachial loading, 5 μM KU55933 or 5 mM NAC, aged donor MSCs, vs. static control
# Method: Cell lines and cell culture. Human mesenchymal stem cells (Promocell) were cultured in low glucose DMEM medium supplemented with 15% fetal bovine serum, L-glutamine and penicillin/streptomycin. Following trypsinization, cells were seeded on the membranes at 20,000 cells per cm^2 before mechanical loading. The cells were used between passages 4-6, unless otherwise specified. The MSCs were derived from a donor 1, unless otherwise specified. A subset of the studies were performed using MSCs from donor 2, or donor 3, or donor 4. A subset of the studies used MSCs derived from a young, healthy donor. Human umbilical vein endothelial cells (HUVECs; PromoCell GmbH) were cultured in MCDB 131 medium supplemented with 7.5% fetal bovine serum, L-glutamine and penicillin/streptomycin and EGM-2 SingleQuot Kit (Thermo Fisher Scientific, Inc.). All cells were cultured in an incubator at 37° C. under a 5% CO2 atmosphere.
# Application of biomechanical treatment. Mechanical strain was applied to cell culture using a high throughput system described previously (Lee et al., 2013; Lee & Baker, 2015; Lee et al., 2020). Briefly, cells are cultured on custom made plates that are mounted on a system that applies strain. The cell culture plates were comprised of silicone membranes (0.005″ thickness; Specialty Manufacturing, Inc.) that are sandwiched between two plates, with silicone rubber gaskets at the interfaces to prevent leaking. These cell culture membranes are UV sterilized and coated with 50 μg/mL fibronectin overnight at 37° C. to allow cell adhesion. After cell attachment, the plates are mounted on to the top plate of the system using screws. To apply mechanical strain, a platen with 36 Teflon pistons is moved into the cell culture membrane. The motion is driven by a hygienically sealed, voice coil-type linear motor (Copley Controls). The platen is stabilized using six motion rails mounted with linear motion bearings. […]
# BrdU Proliferation Assay. […] Absorbance was read at 450 nm using a FlexStation-3 plate reader (Molecular Devices). […]
# [1] = tested on: MSCs from an aged donor one; assay: Western blotting of protein expression after treatment of MSCs; type: cell-based, human; conditions: for SIRT6 expression (Western blotting): brachial+NAC (5 mM) or KU55933 (5 μM) treatment; for DNA damage repair protein KU80 expression (Western blotting): brachial+NAC (5 mM) or brachial+KU55933 (5 μM), compared to control groups
# Method: Application of biomechanical treatment. Mechanical strain was applied to cell culture using a high throughput system described previously (Lee et al., 2013; Lee & Baker, 2015; Lee et al., 2020). Briefly, cells are cultured on custom made plates that are mounted on a system that applies strain. The cell culture plates were comprised of silicone membranes (0.005″ thickness; Specialty Manufacturing, Inc.) that are sandwiched between two plates, with silicone rubber gaskets at the interfaces to prevent leaking. These cell culture membranes are UV sterilized and coated with 50 μg/mL fibronectin overnight at 37° C. to allow cell adhesion. After cell attachment, the plates are mounted on to the top plate of the system using screws. To apply mechanical strain, a platen with 36 Teflon pistons is moved into the cell culture membrane. The motion is driven by a hygienically sealed, voice coil-type linear motor (Copley Controls). The platen is stabilized using six motion rails mounted with linear motion bearings. The hygienically sealed motor housing has chilled water running through in order to prevent overheating during operation. Unless otherwise specified, loading was applied for 4 hours per day for 7 days with or without 1 μm the EGFR/ErbB-2/ErbB-4 Inhibitor (CAS 881001-19-0; Table 3).
# Cell lysis and immunoblotting. Following the treatments, the cells were lysed in 20 mM Tris with 150 mM NaCl, 1% Triton X-100, 0.1% SDS, 2 mM sodium orthovandate, 2 mM PMSF, 50 mM NaF and a protease inhibitor cocktail (Roche, Inc.). The proteins were separated on a NuPAGE 10% bis-tris midi gel (Novex) and transferred to nitrocellulose membrane using iBlot transfer stack (Novex). The membranes were blocked for one hour in 5% non-fat milk in PBS with 0.01% tween-20 (PBST). After washing twice in PBST, cells were incubated with primary antibodies (Table 1) overnight in 1% non-fat milk at 4° C. The membranes were washed with PBST and incubated at room temperature for two hours with secondary antibody. The membrane was treated with chemiluminescent substrate (SuperSignal West Femto; Thermo Fisher Scientific, Inc.) then imaged using a digital imaging system (Cell Biosciences, Inc.).
# as §1
# [2] = tested on: MSCs from three young, healthy donors; assay: RNA-seq analysis of senescence-related gene sets; type: cell-based, human; conditions: brachial loading and E/E inhibitor; young donor MSCs; age-, oncogenic-, stress-, developmental- and inflammation-related senescence gene sets
# Method: To investigate the treatments' effects on gene expression patterns that are correlated with senescence in MSCs, MSCs were obtained from three young, healthy donors, and conditioned with brachial loading and E/E inhibitor. Following the treatments, RNA-seq analysis was performed on the cells, and the expression of several key gene sets related to various mechanisms of senescence in MSCs was evaluated. These gene sets were identified through a thorough investigation of the literature as key mediators of MSC senescence, and the expression pattern of each gene as it pertains to MSC senescence was documented (Zhou et al., 2020; Brandl et al., 2011; Turinetto et al., 2016; Ozkul & Galderisi, 2016; Fridman & Tainsky, 2008; Ki et al., 2014; Cakouros & Gronthos, 2019; Peffers et al., 2016). […] Next, a gene set enrichment analysis (GSEA) was performed on the RNA-seq data. […] In all three senescence-related gene sets, a reduction in senescence related genes with brachial mechanical loading was observed (FIG. 1).
# RNA Sequencing and Analysis. […] For sequencing, single reads of 50 base pairs were performed after poly-A mRNA capture using the Poly(A) Tailing Kit (Ambion) and Ultra II Directional RNA Library Prep Kit (NEB) to isolate mRNA and perform dUTP directional preparation of the mRNA library. […]
# MSCs from young donors [3] = conditions: 1 μM inhibitor as cotreatment with brachial loading; cited from earlier work
# MSCs from young donors [4] = conditions: 1 μM inhibitor as cotreatment with brachial loading, tube formation assay, cited from earlier work
# aged MSCs = assay: β-Galactosidase staining of senescent cell phenotypes; type: cell-based, human; conditions: 5 mM NAC or 5 μM KU55933, with or without brachial loading; vs. static control
# Method: Conditioning of hMSCs using biochemical factors. For mechanistic experiments involving chemical factors and biological inhibitors, cells were incubated with the chemical treatments as shown in Table 3. The cells were treated with mechanical loading for 4 hours/day under brachial waveform at 0.1 Hz and 7.5% maximum strain or cultured under static conditions. The culture media containing the treatments were replaced on day 3 and day 5 for all 7-day treatments. β-Galactosidase Analysis. Following the treatments, cell culture media was removed, and cells were washed once with PBS. Cells were fixed and stained for β-Galactosidase following the protocol of the Senescence β-Galactosidase Staining Kit (Cell Signaling Technologies). Following staining, cells were stored with 70% glycerol and imaged using a light microscope (Meiji, Inc.). Images were post-processed in Adobe Photoshop to increase image contrast and visibility of β-Galactosidase+ cells. Total cells and β-Galactosidase+ cells were manually counted in FIJI, with at least 1,000 cells counted per treatment group.
compound,measurement,setting,value
Dooku1,"p-γ-H2AX foci, treatment of static control cells vs. static treatment alone",MSCs from an aged donor,significantly more p-γ-H2AX foci than static treatment alone
CC(Nc1nc(N2CCCC2)nc2ccccc12)c1ccccc1 (stereo not drawn) [Importazole],"p-γ-H2AX foci, co-treatment with brachial loading vs. brachial loading alone","MSCs from an aged donor; 4 hours brachial loading, 40 μM Importazole",significantly more p-γ-H2AX foci than treatment with brachial loading alone
CC#CC(=O)Nc1cc2c(Nc3ccc(F)c(Cl)c3)ncnc2cn1 [E/E inhibitor],DNA synthesis (BrdU proliferation assay),"MSCs from aged donors; brachial loading 7.5% strain, 4 hours per day for 7 days + 1 μM E/E inhibitor, MSCs from three donors (68-92 years), relative to static control",increased DNA synthesis in two of three donor lines
same,expression of antioxidant enzyme SOD1 (Western blotting),"[1]; brachial loading and E/E inhibitor treatments, aged donor one MSCs",significantly upregulated expression
same,"oxidative stress signaling protein expression, FOX0 transcription factors (Western blotting)","[1]; brachial+E/E inhibitor, 4 hours per day for 7 days, aged donor one MSCs, vs. static control","upregulation of FOX01, p-FOX01, FOX03a, p-FOX03a, and p-FOX04"
same,Sirtuin protein expression (Western blotting),"[1]; brachial+E/E treatment, donor one MSCs, in comparison to static control","upregulation of p-SIRT1, SIRT6, and SIRT7"
same,senescence-related gene expression patterns (RNA-seq),[2],reversed the effects implicated by senescence
same,MSCs that expressed the markers for both endothelial cells and pericytes,MSCs from young donors [3],dramatic increase
same,angiogenic activity / angiogenic properties of MSCs,MSCs from young donors [4]; listed as EGFR/ErbB-2/4 (E/E) inhibitor,enhanced angiogenic activity
same,angiogenic activity / angiogenic properties of MSCs,MSCs from young donors [4]; listed as EGFR/ErbB-2/4 (E/E),synergistically enhances the angiogenic properties
"GsMTx4: directly inhibits Piezo1 channel activity (Tocris 4912) (GCLEFWWKCNPNDDKCCRPKLKCSKLFKLCNFSF; disulfide 16-30, 2-17, 9-23; not fully specified (C-terminus); ends not checked; UniProt Q7YT39 47-80, looked up)","p-γ-H2AX foci, treatment of static control cells vs. static treatment alone",MSCs from an aged donor,significantly more p-γ-H2AX foci than static treatment alone
"CC(=O)N[C@@H](CS)C(=O)O [NAC, N-acetyl-L cysteine]",DNA synthesis (BrdU assay),MSCs from aged donors,not under brachial+NAC treatment; also recorded: a reduction of proliferative enhancement was observed
same,SIRT6 expression (Western blotting),[1]; vs. static control,significant upregulation
same,DNA damage repair protein KU80 expression (Western blotting),[1],remained statistically unchanged
same,percentage of β-galactosidase+ cells,aged MSCs,significant reduction
O=c1cc(-c2cccc3c2Sc2ccccc2S3)oc(N2CCOCC2)c1 [KU55933],DNA synthesis (BrdU assay),MSCs from aged donors,significantly higher DNA synthesis
same,SIRT6 expression (Western blotting),[1]; vs. static control,no significant change
same,DNA damage repair protein KU80 expression (Western blotting),[1],remained statistically unchanged
